{"source": "paper PMC11233931", "about": "“Remodeling tumor‐associated macrophage for anti‐cancer effects by rational design of irreversible inhibition of mitogen‐activated protein kinase‐activated protein kinase 2” (MedComm, 2024)", "assay_in_all_cases": "Eurofins kinase selectivity profile against 380 other human recombinant kinases (Table S2)", "assay_type_in_all_cases": "biochemical", "key": {"[1]": {"biological_target": "T1, 380 human recombinant protein kinases (Homo sapiens, UniProt P07949)", "T1 construct": "purchased Eurofins (Celle Lévescault)", "T1 sequence (P07949 29-1114)": "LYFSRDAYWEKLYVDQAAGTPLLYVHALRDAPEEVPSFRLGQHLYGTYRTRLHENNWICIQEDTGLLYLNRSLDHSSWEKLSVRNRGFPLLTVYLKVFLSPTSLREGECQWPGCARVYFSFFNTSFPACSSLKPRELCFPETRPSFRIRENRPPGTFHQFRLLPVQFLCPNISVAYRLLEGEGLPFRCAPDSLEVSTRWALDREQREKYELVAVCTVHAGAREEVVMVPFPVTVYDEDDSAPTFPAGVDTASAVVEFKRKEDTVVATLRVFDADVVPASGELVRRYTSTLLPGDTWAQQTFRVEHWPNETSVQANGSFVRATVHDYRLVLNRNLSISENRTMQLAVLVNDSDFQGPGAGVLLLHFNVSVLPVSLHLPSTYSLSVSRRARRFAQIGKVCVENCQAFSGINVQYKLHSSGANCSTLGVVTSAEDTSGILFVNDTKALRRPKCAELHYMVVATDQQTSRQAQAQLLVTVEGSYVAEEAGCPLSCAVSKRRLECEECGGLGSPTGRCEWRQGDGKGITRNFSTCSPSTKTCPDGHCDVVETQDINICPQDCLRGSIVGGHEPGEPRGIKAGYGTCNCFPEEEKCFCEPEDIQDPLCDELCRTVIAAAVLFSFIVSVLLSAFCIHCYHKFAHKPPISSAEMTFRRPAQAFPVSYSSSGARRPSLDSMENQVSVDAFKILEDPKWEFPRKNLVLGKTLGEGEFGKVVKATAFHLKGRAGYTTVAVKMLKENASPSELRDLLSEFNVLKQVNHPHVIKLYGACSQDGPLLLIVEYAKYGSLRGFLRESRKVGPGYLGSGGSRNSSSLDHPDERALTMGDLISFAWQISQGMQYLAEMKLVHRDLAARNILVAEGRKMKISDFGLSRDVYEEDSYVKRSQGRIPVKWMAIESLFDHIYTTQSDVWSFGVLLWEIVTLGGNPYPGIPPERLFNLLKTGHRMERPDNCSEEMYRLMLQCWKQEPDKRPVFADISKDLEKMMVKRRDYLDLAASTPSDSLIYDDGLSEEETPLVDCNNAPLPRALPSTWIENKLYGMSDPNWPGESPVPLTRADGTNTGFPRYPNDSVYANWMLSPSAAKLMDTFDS", "conditions": "Ret(h), read-out: Inhibition rate", "procedure,_shortened": "(§1)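 Commercial selectivity screen of the test compound against a panel of 380 human recombinant protein kinases, run by an outside contractor at several compound concentrations to check whether its potency was specific for MK2.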"}, "[2]": {"biological_target": "T2, 380 human recombinant protein kinases (Homo sapiens, UniProt Q9H3Y6)", "T2 construct": "purchased Eurofins (Celle Lévescault)", "conditions": "SRMS(h), read-out: Inhibition rate (%)", "procedure,_shortened": "as §1"}, "[3]": {"biological_target": "T3, 380 human recombinant protein kinases (Homo sapiens, UniProt Q9UKE5)", "T3 construct": "purchased Eurofins (Celle Lévescault)", "conditions": "TNIK(h), read-out: Inhibition rate (%)", "procedure,_shortened": "as §1"}, "[4]": {"biological_target": "T4, 380 human recombinant protein kinases (Homo sapiens, UniProt P08631)", "T4 construct": "purchased Eurofins (Celle Lévescault)", "conditions": "Hck(h), read-out: Inhibition rate", "procedure,_shortened": "as §1"}, "[5]": {"biological_target": "T5, 380 human recombinant protein kinases (Homo sapiens, UniProt Q13464)", "T5 construct": "purchased Eurofins (Celle Lévescault)", "conditions": "ROCK-I(h), read-out: Inhibition rate", "procedure,_shortened": "as §1"}, "[6]": {"biological_target": "T6, 380 human recombinant protein kinases (Homo sapiens, UniProt O14920)", "T6 construct": "purchased Eurofins (Celle Lévescault)", "T6 sequence (O14920 1-756)": "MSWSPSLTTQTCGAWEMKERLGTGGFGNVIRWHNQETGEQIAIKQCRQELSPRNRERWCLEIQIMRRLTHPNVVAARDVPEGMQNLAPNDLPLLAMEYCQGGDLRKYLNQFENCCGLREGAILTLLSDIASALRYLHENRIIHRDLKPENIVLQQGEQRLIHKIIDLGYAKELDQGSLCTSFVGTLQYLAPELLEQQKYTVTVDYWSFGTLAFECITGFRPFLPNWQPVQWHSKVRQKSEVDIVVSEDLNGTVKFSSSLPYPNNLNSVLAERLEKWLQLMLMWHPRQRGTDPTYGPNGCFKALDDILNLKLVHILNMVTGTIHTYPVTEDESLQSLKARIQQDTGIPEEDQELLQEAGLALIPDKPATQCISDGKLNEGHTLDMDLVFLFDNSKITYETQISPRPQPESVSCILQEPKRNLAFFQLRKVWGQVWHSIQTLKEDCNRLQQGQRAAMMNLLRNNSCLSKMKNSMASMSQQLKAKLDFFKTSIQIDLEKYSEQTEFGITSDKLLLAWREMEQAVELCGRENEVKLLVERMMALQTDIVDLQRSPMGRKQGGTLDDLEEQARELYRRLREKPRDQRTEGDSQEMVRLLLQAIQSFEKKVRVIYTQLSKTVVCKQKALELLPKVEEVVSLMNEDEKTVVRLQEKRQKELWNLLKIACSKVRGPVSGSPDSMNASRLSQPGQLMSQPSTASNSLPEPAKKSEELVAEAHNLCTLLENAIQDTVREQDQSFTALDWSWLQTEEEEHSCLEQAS", "conditions": "IKKβ(h), read-out: Inhibition rate", "procedure,_shortened": "as §1"}, "[7]": {"biological_target": "T7, 380 human recombinant protein kinases (Homo sapiens, UniProt P48736)", "T7 construct": "purchased Eurofins (Celle Lévescault)", "conditions": "PI3 Kinase (p120γ)(h), read-out: Inhibition rate (%)", "procedure,_shortened": "as §1"}, "[8]": {"biological_target": "T8, 380 human recombinant protein kinases (Homo sapiens, UniProt P15056, V600E)", "T8 construct": "purchased Eurofins (Celle Lévescault)", "conditions": "B-Raf(V599E)(h), read-out: Inhibition rate", "procedure,_shortened": "as §1"}, "[9]": {"biological_target": "T9, 380 human recombinant protein kinases (Homo sapiens, UniProt Q15746)", "T9 construct": "purchased Eurofins (Celle Lévescault)", "T9 sequence (Q15746 whole entry)": "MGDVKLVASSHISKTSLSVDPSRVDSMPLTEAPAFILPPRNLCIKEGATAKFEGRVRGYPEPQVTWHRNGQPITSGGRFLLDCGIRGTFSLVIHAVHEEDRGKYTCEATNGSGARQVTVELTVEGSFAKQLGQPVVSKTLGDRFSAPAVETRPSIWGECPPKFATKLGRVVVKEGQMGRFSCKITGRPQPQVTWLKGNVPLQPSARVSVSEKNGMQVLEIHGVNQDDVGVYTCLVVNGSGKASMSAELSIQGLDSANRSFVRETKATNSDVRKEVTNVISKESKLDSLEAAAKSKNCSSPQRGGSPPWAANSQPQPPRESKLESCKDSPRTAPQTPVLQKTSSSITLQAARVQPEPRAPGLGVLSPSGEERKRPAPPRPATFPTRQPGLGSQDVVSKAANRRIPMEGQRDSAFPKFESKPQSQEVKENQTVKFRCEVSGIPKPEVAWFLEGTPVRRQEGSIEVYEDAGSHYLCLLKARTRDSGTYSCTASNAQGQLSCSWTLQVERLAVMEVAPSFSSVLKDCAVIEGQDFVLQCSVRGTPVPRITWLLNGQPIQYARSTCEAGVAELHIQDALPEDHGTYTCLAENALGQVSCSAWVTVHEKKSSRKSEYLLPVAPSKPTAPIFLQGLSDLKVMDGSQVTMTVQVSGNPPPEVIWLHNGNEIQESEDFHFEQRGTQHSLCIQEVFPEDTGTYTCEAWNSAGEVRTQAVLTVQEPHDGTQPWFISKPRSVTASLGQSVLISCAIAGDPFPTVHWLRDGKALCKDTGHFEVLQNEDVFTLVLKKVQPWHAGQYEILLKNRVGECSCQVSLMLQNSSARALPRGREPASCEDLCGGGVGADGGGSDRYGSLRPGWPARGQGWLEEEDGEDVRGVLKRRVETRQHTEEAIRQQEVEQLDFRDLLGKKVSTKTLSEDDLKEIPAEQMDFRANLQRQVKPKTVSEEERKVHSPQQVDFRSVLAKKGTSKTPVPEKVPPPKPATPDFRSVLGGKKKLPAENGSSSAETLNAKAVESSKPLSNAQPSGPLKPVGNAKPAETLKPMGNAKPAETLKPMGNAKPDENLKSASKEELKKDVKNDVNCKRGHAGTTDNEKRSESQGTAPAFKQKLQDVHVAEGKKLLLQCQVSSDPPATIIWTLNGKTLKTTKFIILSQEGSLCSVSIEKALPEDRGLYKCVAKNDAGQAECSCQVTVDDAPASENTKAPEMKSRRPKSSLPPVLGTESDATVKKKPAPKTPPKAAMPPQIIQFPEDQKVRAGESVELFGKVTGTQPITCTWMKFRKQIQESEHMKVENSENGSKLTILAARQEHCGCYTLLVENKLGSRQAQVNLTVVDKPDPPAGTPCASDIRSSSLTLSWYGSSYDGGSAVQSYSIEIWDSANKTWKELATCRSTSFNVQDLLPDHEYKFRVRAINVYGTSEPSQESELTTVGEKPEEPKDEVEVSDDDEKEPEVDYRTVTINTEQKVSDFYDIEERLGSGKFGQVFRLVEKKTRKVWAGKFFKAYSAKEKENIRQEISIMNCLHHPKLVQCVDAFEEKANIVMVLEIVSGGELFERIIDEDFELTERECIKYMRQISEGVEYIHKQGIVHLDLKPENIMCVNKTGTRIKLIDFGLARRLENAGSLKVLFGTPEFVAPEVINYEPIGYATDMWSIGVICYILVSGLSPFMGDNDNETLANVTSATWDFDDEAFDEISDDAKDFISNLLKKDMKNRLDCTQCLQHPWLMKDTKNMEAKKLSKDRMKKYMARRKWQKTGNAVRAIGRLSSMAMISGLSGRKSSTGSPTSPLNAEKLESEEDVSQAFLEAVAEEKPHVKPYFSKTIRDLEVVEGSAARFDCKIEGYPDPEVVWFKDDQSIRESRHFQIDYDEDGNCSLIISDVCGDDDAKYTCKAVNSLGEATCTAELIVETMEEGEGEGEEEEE", "conditions": "MLCK(h), read-out: Inhibition rate", "procedure,_shortened": "as §1"}, "[10]": {"biological_target": "T10, 380 human recombinant protein kinases (Homo sapiens, UniProt P08581)", "T10 construct": "purchased Eurofins (Celle Lévescault)", "conditions": "Met(h), read-out: Inhibition rate", "procedure,_shortened": "as §1"}, "[11]": {"biological_target": "T11, 380 human recombinant protein kinases (Homo sapiens, UniProt P15735)", "T11 construct": "purchased Eurofins (Celle Lévescault)", "T11 sequence (P15735 1-406)": "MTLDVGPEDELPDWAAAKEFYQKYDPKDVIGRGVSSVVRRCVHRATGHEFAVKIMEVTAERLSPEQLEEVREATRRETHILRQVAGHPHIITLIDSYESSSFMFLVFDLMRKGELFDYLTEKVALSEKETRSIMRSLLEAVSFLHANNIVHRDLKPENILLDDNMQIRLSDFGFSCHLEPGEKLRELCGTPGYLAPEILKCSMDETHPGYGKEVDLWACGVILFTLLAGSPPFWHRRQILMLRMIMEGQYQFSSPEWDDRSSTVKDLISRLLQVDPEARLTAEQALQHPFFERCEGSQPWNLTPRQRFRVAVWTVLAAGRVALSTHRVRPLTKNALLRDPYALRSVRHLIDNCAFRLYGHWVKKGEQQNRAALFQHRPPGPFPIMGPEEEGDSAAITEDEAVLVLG", "conditions": "PhKγ2(h), read-out: Inhibition rate", "procedure,_shortened": "as §1"}, "[12]": {"biological_target": "T12, 380 human recombinant protein kinases (Homo sapiens, UniProt Q14004)", "T12 construct": "purchased Eurofins (Celle Lévescault)", "conditions": "CDK13/cyclinK(h), read-out: Inhibition rate", "procedure,_shortened": "as §1"}, "[13]": {"biological_target": "T13, 380 human recombinant protein kinases (Homo sapiens, UniProt O14578)", "T13 construct": "purchased Eurofins (Celle Lévescault)", "T13 sequence (O14578 whole entry)": "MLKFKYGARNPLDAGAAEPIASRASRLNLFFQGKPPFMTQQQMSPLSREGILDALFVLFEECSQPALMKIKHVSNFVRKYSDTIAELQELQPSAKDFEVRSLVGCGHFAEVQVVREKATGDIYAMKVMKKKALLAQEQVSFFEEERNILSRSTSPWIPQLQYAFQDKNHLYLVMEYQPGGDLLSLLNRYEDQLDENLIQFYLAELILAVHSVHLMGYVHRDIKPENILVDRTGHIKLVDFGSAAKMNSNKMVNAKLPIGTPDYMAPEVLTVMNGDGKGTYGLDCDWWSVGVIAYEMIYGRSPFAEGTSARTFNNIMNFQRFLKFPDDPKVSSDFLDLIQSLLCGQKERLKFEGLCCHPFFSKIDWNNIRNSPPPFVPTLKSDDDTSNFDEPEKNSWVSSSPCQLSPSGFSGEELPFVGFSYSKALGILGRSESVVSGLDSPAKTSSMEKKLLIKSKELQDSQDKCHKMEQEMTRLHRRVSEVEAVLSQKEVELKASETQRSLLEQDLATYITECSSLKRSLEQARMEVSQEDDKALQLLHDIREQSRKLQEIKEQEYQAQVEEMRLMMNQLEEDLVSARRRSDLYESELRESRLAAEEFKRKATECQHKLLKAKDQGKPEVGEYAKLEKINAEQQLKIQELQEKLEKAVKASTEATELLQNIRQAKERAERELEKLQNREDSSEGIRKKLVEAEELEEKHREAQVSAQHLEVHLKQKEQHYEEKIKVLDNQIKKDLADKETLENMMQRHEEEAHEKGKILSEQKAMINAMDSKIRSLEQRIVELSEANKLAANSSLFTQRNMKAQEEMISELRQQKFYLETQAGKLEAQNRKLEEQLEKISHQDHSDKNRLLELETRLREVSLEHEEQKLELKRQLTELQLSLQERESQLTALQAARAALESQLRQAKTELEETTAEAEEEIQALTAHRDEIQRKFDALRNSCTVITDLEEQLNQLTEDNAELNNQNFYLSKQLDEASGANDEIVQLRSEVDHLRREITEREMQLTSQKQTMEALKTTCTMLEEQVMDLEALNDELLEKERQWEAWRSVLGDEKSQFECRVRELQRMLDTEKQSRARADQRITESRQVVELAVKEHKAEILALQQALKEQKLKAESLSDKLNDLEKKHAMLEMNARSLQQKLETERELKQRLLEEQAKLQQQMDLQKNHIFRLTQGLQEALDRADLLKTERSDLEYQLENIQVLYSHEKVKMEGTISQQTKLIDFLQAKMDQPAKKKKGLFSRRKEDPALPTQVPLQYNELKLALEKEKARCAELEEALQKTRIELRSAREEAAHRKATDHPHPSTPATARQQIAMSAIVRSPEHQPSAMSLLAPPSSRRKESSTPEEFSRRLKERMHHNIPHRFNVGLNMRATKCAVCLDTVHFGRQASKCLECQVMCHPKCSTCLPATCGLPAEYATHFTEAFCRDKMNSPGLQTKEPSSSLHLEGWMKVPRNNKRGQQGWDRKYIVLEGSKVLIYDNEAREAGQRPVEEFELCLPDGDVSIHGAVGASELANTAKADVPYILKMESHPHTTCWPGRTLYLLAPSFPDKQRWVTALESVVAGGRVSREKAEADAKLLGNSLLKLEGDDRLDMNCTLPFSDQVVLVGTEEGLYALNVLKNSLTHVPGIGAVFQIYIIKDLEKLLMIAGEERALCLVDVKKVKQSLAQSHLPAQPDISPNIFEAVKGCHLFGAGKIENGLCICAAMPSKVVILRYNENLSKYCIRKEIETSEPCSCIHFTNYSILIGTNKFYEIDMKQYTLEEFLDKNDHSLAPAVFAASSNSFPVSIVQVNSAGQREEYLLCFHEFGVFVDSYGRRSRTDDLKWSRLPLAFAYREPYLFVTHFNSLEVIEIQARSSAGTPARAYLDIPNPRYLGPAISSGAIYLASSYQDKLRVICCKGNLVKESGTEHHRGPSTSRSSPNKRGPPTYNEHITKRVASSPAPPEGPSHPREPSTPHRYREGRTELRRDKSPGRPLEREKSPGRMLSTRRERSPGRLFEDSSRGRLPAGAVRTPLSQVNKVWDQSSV", "conditions": "CRIK(h), read-out: Inhibition rate", "procedure,_shortened": "as §1"}}}
{"smiles": "C=CC(=O)Nc1cc(-c2cc(-c3cc4c([nH]3)CCNC4=O)ccn2)ccc1OC(F)(F)F", "note": "[compound 11]", "values": [{"measurement": "inhibition at 0.01 µM", "setting": "[1]; 10 nM", "result": 12, "unit": "%"}, {"measurement": "inhibition at 0.1 µM", "setting": "[1]; 100 nM", "result": 2, "unit": "%"}, {"measurement": "inhibition at 1 µM", "setting": "[1]; 1000 nM", "result": 1, "unit": "%"}, {"measurement": "inhibition at 0.01 µM", "setting": "[2]; 10 nM", "result": 1, "unit": "%"}, {"measurement": "inhibition at 0.1 µM", "setting": "[2]; 100 nM", "result": 10, "unit": "%"}, {"measurement": "inhibition at 1 µM", "setting": "[2]; 1000 nM", "result": 7, "unit": "%"}, {"measurement": "inhibition at 0.01 µM", "setting": "[3]; 10 nM", "result": -12, "unit": "%"}, {"measurement": "inhibition at 0.1 µM", "setting": "[3]; 100 nM", "result": 9, "unit": "%"}, {"measurement": "inhibition at 1 µM", "setting": "[3]; 1000 nM", "result": 42, "unit": "%"}, {"measurement": "inhibition at 0.01 µM", "setting": "[4]; 10 nM", "result": -3, "unit": "%"}, {"measurement": "inhibition at 0.1 µM", "setting": "[4]; 100 nM", "result": -7, "unit": "%"}, {"measurement": "inhibition at 1 µM", "setting": "[4]; 1000 nM", "result": 4, "unit": "%"}, {"measurement": "inhibition at 0.01 µM", "setting": "[5]; 10 nM", "result": 2, "unit": "%"}, {"measurement": "inhibition at 0.1 µM", "setting": "[5]; 100 nM", "result": -1, "unit": "%"}, {"measurement": "inhibition at 1 µM", "setting": "[5]; 1000 nM", "result": -7, "unit": "%"}, {"measurement": "inhibition at 0.01 µM", "setting": "[6]; 10 nM", "result": -15, "unit": "%"}, {"measurement": "inhibition at 0.1 µM", "setting": "[6]; 100 nM", "result": -12, "unit": "%"}, {"measurement": "inhibition at 1 µM", "setting": "[6]; 1000 nM", "result": -12, "unit": "%"}, {"measurement": "inhibition at 0.01 µM", "setting": "[7]; 10 nM", "result": 1, "unit": "%"}, {"measurement": "inhibition at 0.1 µM", "setting": "[7]; 100 nM", "result": -1, "unit": "%"}, {"measurement": "inhibition at 1 µM", "setting": "[7]; 1000 nM", "result": 3, "unit": "%"}, {"measurement": "inhibition at 0.01 µM", "setting": "[8]; 10 nM", "result": -6, "unit": "%"}, {"measurement": "inhibition at 0.1 µM", "setting": "[8]; 100 nM", "result": -14, "unit": "%"}, {"measurement": "inhibition at 1 µM", "setting": "[8]; 1000 nM", "result": -2, "unit": "%"}, {"measurement": "inhibition at 0.01 µM", "setting": "[9]; 10 nM", "result": -10, "unit": "%"}, {"measurement": "inhibition at 0.1 µM", "setting": "[9]; 100 nM", "result": 0, "unit": "%"}, {"measurement": "inhibition at 1 µM", "setting": "[9]; 1000 nM", "result": 34, "unit": "%"}, {"measurement": "inhibition at 0.01 µM", "setting": "[10]; 10 nM", "result": 6, "unit": "%"}, {"measurement": "inhibition at 0.1 µM", "setting": "[10]; 100 nM", "result": 21, "unit": "%"}, {"measurement": "inhibition at 1 µM", "setting": "[10]; 1000 nM", "result": 62, "unit": "%"}, {"measurement": "inhibition at 0.01 µM", "setting": "[11]; 10 nM", "result": 8, "unit": "%"}, {"measurement": "inhibition at 0.1 µM", "setting": "[11]; 100 nM", "result": 1, "unit": "%"}, {"measurement": "inhibition at 1 µM", "setting": "[11]; 1000 nM", "result": 2, "unit": "%"}, {"measurement": "inhibition at 0.01 µM", "setting": "[12]; 10 nM", "result": 1, "unit": "%"}, {"measurement": "inhibition at 0.1 µM", "setting": "[12]; 100 nM", "result": 7, "unit": "%"}, {"measurement": "inhibition at 1 µM", "setting": "[12]; 1000 nM", "result": 9, "unit": "%"}, {"measurement": "inhibition at 0.01 µM", "setting": "[13]; 10 nM", "result": -8, "unit": "%"}, {"measurement": "inhibition at 0.1 µM", "setting": "[13]; 100 nM", "result": 6, "unit": "%"}, {"measurement": "inhibition at 1 µM", "setting": "[13]; 1000 nM", "result": 29, "unit": "%"}]}
